{"source": "patent US20230103554A1", "about": "“TNFa SIGNALING [sequence] TUMOR-PROMOTING INFLAMMATION THAT CAN BE TARGETED TO THERAPY” (Baylor College of Medicine, priority 2020, published 2023)", "key": {"[1]": {"system": "sTNFα production", "experiment": "NB-monocyte co-culture, TNFα ELISA of supernatant", "assay_type": "cell-based, human", "conditions": "24 hours", "experimental": "Monocytes were directly cultured with wild-type or TNF, TNFR1, TNFR2 KO NB cell lines in ULA plates for 24 hours. Activation of NF-kB in monocytes and NB was measured by flow cytometry and cytokine production measured by ELISA from co-culture supernatant. To evaluate the contact-dependence of monocyte activation by NB, monocytes were cultured in ULA plates with seven-day NB conditioned medium mixed 1:1 with complete monocyte medium for 24 hours and analyzed for IL-6 production. To assess the growth advantage of NB cultured with monocytes, NB-luc cell lines and monocytes were seeded in tissue culture-treated white 96-well plates (1:1 ratio) and cultured for four days. Luminescence was measured using a TECAN Spark plate reader (TECAN). To evaluate changes in proliferation, NB was pulsed for 10 minutes in CellTrace Violet (2 μM, Invitrogen) and seeded at 100,000 cells per well in a 12-well tissue culture-treated plate. Monocytes were added directly to the NB monolayer at a density of 100,000 per well and incubated for four days. CellTrace Violet expression was analyzed by flow cytometry.\nCytokines released by monocytes were detected within co-culture supernatants using the Human TNF-alpha Quantikine ELISA Kit (TNFα, R&D Systems) and the Human IL-6 Quantikine ELISA Kit (IL-6, R&D Systems) according to manufacturer's guidelines. ELISA plates were read using a TECAN Spark plate reader (TECAN). Global cytokine regulation was evaluated using a custom Luminex panel containing the following cytokines: CX3CL1, CXCL10, EGF, FGF-2, Flt3L, G-CSF, GM-CSF, IL-1α, IL-1β, IL-1Ra, IL-4, IL-6, IL-8, IL-10, IL-12 (p40), IL-12 (p′70), M-CSF, MCP-1, MCP-3, MDC, MIP-1α, MIP-1β, TGFα, TNFα, TNFβ, and VEGF-A (Human Cytokine Panel A, Millipore-Sigma)."}, "[2]": {"system": "murine CD31", "experiment": "Murine CD31 immunofluorescence of xenograft tumors (angiogenesis)", "assay_type": "in vivo, mouse", "conditions": "CHLA-255-luc/monocyte tumors", "excerpt": "(§1) (FIG. 17A) Tumors recovered from mice in FIG. 16 were snap frozen in OTC media, thin sectioned, and stained for murine CD31 expression (red) and DAPI counterstain (blue). Results shown are representative images from five fields of view (FOVs) per tumor, with five tumors per group. Scale bar 50 μm. (FIG. 17B) Total number of CD31+ regions per FOV with box and whisker plot showing quartiles±range (Ctrl n=15, Etan n=25). (FIG. 17C) Size of each CD31+ area quantified per FOV; shown is median CD31+ area per FOV with box and whisker plot showing quartiles±range (Ctrl n=15, Etan n=25) (FIG. 17D) Longest distance across each CD31+ area (Max Feret distance) per FOV; shown is median distance per FOV with box and whisker plot showing quartiles±range (Ctrl n=15, Etan n=25). (FIG. 17E) Eukaryotic mRNA-seq was performed on tumor samples, and mouse transcripts were excluded from analysis by XenoFilterR program. Differentially regulated genes were identified using two-fold expression difference and adjusted P value<0.05 as cutoffs.\nTumors from in vivo experiments were snap-frozen in OTC Media (Tissue-Tek, VWR) and cryo-sectioned into 5 μm thin sections (Texas Children's Hospital Histology Core, Houston, Tex.). Samples were fixed and permeabilized in ice-cold acetone for 10 minutes at −20 C and blocked in TBS containing 5% normal goat serum (CST) and 1% BSA (Sigma) for 2 hours at RT. Rat anti-mouse CD31 primary antibody (Invitrogen, clone 390) was diluted 1:10 in staining buffer (TBS, 1% NGS, 1% BSA) overnight at 4 C. […] Slides were counterstained with 1 μg/mL DAPI (BD Biosciences) for five minutes and mounted with fluorescence mounting media (Fluoromount G, Invitrogen). […] Images were processed and analyzed using FIJI/ImageJ software (NIH). To quantify CD31+ staining, images were thresholded (default, 1800 MIN, Infinity MAX), converted to binary, and analyzed using the FIJI/ImageJ “Analyze Particle” function excluding regions smaller than 25 μm2. […]"}, "[3]": {"system": "NB tumor cell gene expression", "experiment": "Eukaryotic mRNA-seq of xenograft tumors", "assay_type": "in vivo", "conditions": "mouse transcripts, vs control tumors", "excerpt": "as §1, with “(FIG. 17E) Eukaryotic mRNA-seq was performed on tumor samples, and mouse transcripts were excluded from analysis by XenoFilterR program. Differentially regulated genes were identified using two-fold expression difference and adjusted P value<0.05 as cutoffs.” left out\nTotal RNA from cell pellets was isolated using the RNeasy Micro Plus Kit (Qiagen). […] Relative changes in gene expression were calculated based on the ΔCt method using housekeeping gene GAPDH as control. […]\nEukaryotic mRNA sequencing with 30M depth and 150 paired end reads was performed by Novogene, Inc. Quality control checks on FASTQ sequencing files were performed by FastQC (v0.11.2, https://www.bioinformatics.babraham.ac.uk/projects/fastqc/). Reads were then aligned to human (GRCh38, Ensembl release version 84) or mouse (GRCm38, Ensembl release version 81) reference genomes separately by hisat2 v2.1.0(51). […]"}}}
{"substance": "etanercept", "values": [{"measurement": "sTNFα production", "setting": "[1]; CHLA-255 + monocytes, 10 μg/mL etanercept, vs IgG control (FIG. 15A)", "value": "almost entirely blocked"}, {"measurement": "TNFα level in co-culture supernatant", "setting": "[1]; SK-N-AS + monocytes, vs IgG control", "value": "decrease"}, {"measurement": "vessel formation by CD31 immunofluorescence", "setting": "[2]; vs IgG control", "value": "failed to form distinct vessels"}, {"measurement": "average area of CD31+ regions per FOV", "setting": "[2]; vs control", "value": "significantly smaller"}, {"measurement": "vessel length (maximum linear distance across CD31+ regions)", "setting": "[2]; vs control", "value": "significantly shorter"}, {"measurement": "infiltration of erythrocytes, platelets, and neutrophils (mouse stroma gene expression)", "setting": "[3]", "value": "reduced infiltration of erythrocytes, platelets, and neutrophils"}]}
